Measurements: ChEMBL document CHEMBL3351604, “Rhytidenones A-F, Spirobisnaphthalenes from Rhytidhysteron sp. AS21B, an Endophytic Fungus” (J Nat Prod, 2014)
Calls of active or inactive are those of the source. The calls are words filed in the database; no cut-off is given here.

How the values were obtained:
[1] = Antiinflammatory activity in mouse J774A1 cells assessed as inhibition of LPS-stimulated NO production pretreated for 2 hrs followed by LPS addition measured after 18 hrs post LPS challenge by spectrophotometry; format: functional, cell-based; details: J774.A1
[2] = Cytotoxicity against mouse J774A1 cells by MTT assay; format: cell-based; details: j774.a1
[3] = system: J774.A1; experiment: Antiinflammatory activity in mouse J774A1 cells assessed as inhibition of LPS-stimulated NO production pretreated at 10 uM for 2 hrs followed by LPS addition measured after 18 hrs post LPS challenge by spectrophotometry; format: functional, cell-based

| Structure (SMILES) | IC50 [1] [nM] | Activity [2] | other results |
| --- | --- | --- | --- |
| O=C1C[C@H](O)[C@@H](O)[C@@H]2C1=CCCC21Oc2cccc3cccc(c23)O1 | 310 | – | – |
| CO[C@@H]1CC(=O)C2=CCCC3(Oc4cccc5cccc(c45)O3)[C@@H]2[C@@H]1O | – | Toxic | – |
| O=C1C[C@@H](O)[C@@H](O)[C@@H]2C1=CCCC21Oc2cccc3cccc(c23)O1 | 3600 | – | – |
| O=C1C=C[C@@H](O)[C@@H]2C1=CCCC21Oc2cccc3cccc(c23)O1 | – | Toxic | – |
| OC1C=CC(O)C2C1C(O)CCC21Oc2cccc3cccc(c23)O1 (stereo not given) | – | – | inhibition [3]: inactive |
